Source: patent EP4108244A1, “SS-LACTAM ANTIBIOTIC WITH SIGNIFICANT ACTIVITY AGAINST CANCER E.G. COLON MALIGNANCIES” (priority 2021, dated 2022)
Several values for one entry are separate records, joined by “and”; a condition that tells them apart may be missing. Identical values can stand only once. Marks after values point to notes of the source that are not given here.

How the values were obtained:
HCT-116 cells [1] = test: MTT metabolic activity assay; format: cell-based, human; details: 48 h post-treatment, CFT 100 µg/mL, CFP 50 µg/mL combined with 5-FU
DLD-1 cells = test: MTT metabolic activity assay; format: cell-based, human
Procedure: MTT assay was used to assess the proliferation rate of HCT-116 and DLD-1 cells. In this assay the ability of metabolically active cells to convert tetrazolium salt into a blue formazan product is measured. The absorption of the dissolved formazan was quantified at 540 nm by an ELISA reader (Bio-Rad iMark Microplate Reader).
Cells were plated at 2^∗104cells/ml in 96-well plates and incubated overnight. […] Metabolic activity of the cells was studied using the MTT assay that measures the ability of metabolically active cells to convert tetrazolium salt into a blue formazan product, the absorbance of which is recorded at 540 nm by an ELISA reader (Bio-Rad iMark Microplate Reader).

HCT-116 cells [2] = test: Xenograft model of colon cancer cells, tumor growth; format: in vivo, NOD/SCID mice
Procedure: Twelve NOD/SCID mice were randomly distributed into two groups (6 mice/group). HCT-116 colon cancer cells (3.5 million) suspended in sterile physiological solution (0.9% NaCl) were injected subcutaneously into the flank of 4 to 6-week old mice. Animals were kept in a light- and temperature-controlled environment and provided with food and water ad libitum. The tumor size was monitored and determined three times per week using a sterile Vernier caliper. Tumor volume was calculated by the following formula: Volume=π/6^∗(length × width × height). […] Growth delay was assessed by comparing the size of tumors in treated animals to those of control animals. Ethical approval was obtained before the beginning of the experiments.

HCT-116 cells [3] = test: Cell cycle distribution, propidium iodide staining; format: cell-based, human; details: CFT 100 µg/mL, CFP 50 µg/mL, 5-FU 8 µM, alone or combined, mean ± SE
Procedure: Propidium iodide (PI) staining was used to evaluate the effect of the different treatments on the cell cycle. […] Fixed cells, which were washed with PBS and incubated at 37 °C for 1 h with 50 µl RNase (1 mg/ml) (Sigma Aldrich, Germany), were stained for 15 minutes with PI (Molecular Probes, Eugene, Oregon, USA).

Caco-2 cells = test: MTT metabolic activity assay; format: cell-based, human; details: 24 h post-treatment, 5-Fluorouracil 4µM
Procedure: Cells were plated at 2^∗104cells/ml in 96-well plates and incubated overnight. The following day, cells were treated in triplicate with Ceftazdime or 5-fluorouracil for 24-48 h, depending on the cell line used. Metabolic activity of the cells was studied using the MTT assay that measures the ability of metabolically active cells to convert tetrazolium salt into a blue formazan product, the absorbance of which is recorded at 540 nm by an ELISA reader (Bio-Rad iMark Microplate Reader).

[4] = three weeks post-treatment, 10mg/mouse intraperitoneal three times per week

## CC(C)(O/N=C(\C(=O)N[C@@H]1C(=O)N2C(C(=O)[O-])=C(C[n+]3ccccc3)CS[C@H]12)c1csc(N)n1)C(=O)O [CFT, (6R,7R)-7-[[(2Z)-2-(2-amino-1,3-thiazol-4-yl)-2-(2-carboxypropan-2-yloxyimino)acetyl]amino]-8-oxo-3-(pyridin-1-ium-1-ylmethyl)-5-thia-1-azabicyclo[4.2.0]oct-2-ene-2-carboxylate]
HCT-116 cells [1]
  effect on 5-FU's effect on metabolic activity (in words): antagonized 5-FU's effect
DLD-1 cells; 48 h post-treatment, 5-Fluorouracil 16µM
  inhibitory effect vs. control untreated cells (metabolic activity): 18%
DLD-1 cells; CFT alone (100 µg/ml), 72 h post-treatment
  metabolic activity (in words): significant decrease in the metabolic activity
HCT-116 cells [2]; mice exposed for three weeks, then treatment stopped
  tumor growth after stopping treatment (in words): the tumor did not grow further
HCT-116 cells [2]; [4]
  inhibition of tumor volume vs. control group: 95%
  tumor size (volume of xenografts): 45.3 mm^3
HCT-116 cells [2]; treatment started when tumor volume was around 990 mm^3, vs. control untreated mice
  inhibition of tumor volume, already established tumors: around 50%
HCT-116 cells [3]; 48 h
  percentage of cells in G2/M: 24.4 ± 1.2%
  percentage of cells in Pre G1: 6.4 ± 2.3^(a) %
  percentage of cells in S: 12.8 ± 2.9%
HCT-116 cells [3]; 72 h
  percentage of cells in G0/G1: 56.9 ± 1.3^(a) %
  percentage of cells in G2/M: 24.3 ± 0.5^(a) %
  percentage of cells in Pre G1: 9.8% and 9.8 ± 0.9^(a) %
  percentage of cells in S: 6.6 ± 1.0%
Caco-2 cells
  inhibition of proliferation (metabolic activity): 30%
